# In patent publication US20100120789A1, “Compound” (priority 2005, published 2010):
row,melting point,SMILES
1,108 to 111 °C,"Cc1nc2cc(NCC(=O)C(C)(C)C)ccc2s1 [STX1740, 3,3-Dimethyl-1-(2-methyl-benzothiazol-5-ylamino)-butan-2-one]"
2,64 to 65 °C,"CN(CCc1ccccn1)C(=O)C12CC3CC(CC(C3)C1)C2 [STX1887, Adamantane-1-carboxylic acid methyl-(2-pyridin-2-yl-ethyl)-amide]"
3,125 to 128 °C,"[O-][S+](Cc1cn(C23CC4CC(CC(C4)C2)C3)nn1)c1cc(Cl)ccc1Cl (stereo not shown) [STX1892, 1-Adamantan-1-yl-4-(2,5-dichloro-benzenesulfinylmethyl)-1H-[1,2,3]triazole]"
4,108 to 112 °C,"COc1ccc(OCc2cn(C34CC5CC(CC(C5)C3)C4)nn2)cc1OC [STX1893, 1-Adamantan-1-yl-4-(3,4-dimethoxy-phenoxymethyl)-1H-[1,2,3]triazole]"
5,65 to 69 °C,"Cn1ccnc1SCC(=O)C12CC3CC(CC(C3)C1)C2 [STX1898, 1-Adamantan-1-yl-2-(1-methyl-1H-imidazol-2-ylsulfanyl)-ethanone]"
6,69 to 72 °C,"O=C(CSc1cccs1)C12CC3CC(CC(C3)C1)C2 [STX1902, 1-Adamantan-1-yl-2-(thiophen-2-ylsulfanyl)-ethanone]"
7,75 to 79 °C,"O=C(C[S+]([O-])Cc1ccco1)C12CC3CC(CC(C3)C1)C2 (stereo not shown) [STX1908, 1-Adamantan-1-yl-2-(furan-2-ylmethanesulfinyl)-ethanone]"
8,95 to 99 °C,"CN(CCc1cccs1)C(=O)C12CC3CC(CC(C3)C1)C2 [STX1910, Adamantane-1-carboxylic acid methyl-(2-thiophen-2-yl-ethyl)-amide]"
9,86 to 89 °C,"Cn1ccnc1[S+]([O-])CC(=O)C12CC3CC(CC(C3)C1)C2 (stereo not shown) [STX1924, 1-Adamantan-1-yl-2-(1-methyl-1H-imidazole-2-sulfinyl)-ethanone]"
10,95 to 98 °C,"O=C(C[S+]([O-])Cc1cccs1)C12CC3CC(CC(C3)C1)C2 (stereo not shown) [STX1929, 1-Adamantan-1-yl-2-(thiophen-2-ylmethanesulfinyl)-ethanone]"
11,114 to 115.5 °C,"O=C(C[S+]([O-])c1cccs1)C12CC3CC(CC(C3)C1)C2 (stereo not shown) [STX1930, 1-Adamantan-1-yl-2-(thiophene-2-sulfinyl)-ethanone]"
12,93 to 95 °C,"Cc1ccc(CN(C)C(=O)C23CC4CC(CC(C4)C2)C3)cc1 [STX2003, Adamantane-1-carboxylic acid methyl-(4-methyl-benzyl)-amide]"
13,137 to 140 °C,"O=C(N1CCN(c2ccccn2)CC1)C12CC3CC(CC(C3)C1)C2 [STX2065, Adamantan-1-yl-(4-pyridin-2-yl-piperazin-1-yl)-methanone]"
14,83 to 85.5 °C,"Cc1ccc(CN(C)C(=O)C23CC4CC(CC(C4)C2)C3)s1 [STX2067, Adamantane-1-carboxylic acid methyl-(5-methyl-thiophen-2-ylmethyl)-amide]"
15,183 to 185 °C,"O=C(N1CCN(c2ccc(Cl)cc2)CC1)C12CC3CC(CC(C3)C1)C2 [STX2120, Adamantan-1-yl-[4-(4-chloro-phenyl)-piperazin-1-yl]methanone]"
16,76 to 77.5 °C,"Cc1cccc(CN(C)C(=O)C23CC4CC(CC(C4)C2)C3)n1 [STX2134, Adamantane-1-carboxylic acid methyl-(6-methyl-pyridin-2-ylmethyl)-amide]"
17,57 to 59.5 °C,"CN(Cc1cccnc1)C(=O)C12CC3CC(CC(C3)C1)C2 [STX2135, Adamantane-1-carboxylic acid methyl-pyridin-3-ylmethyl-amide]"
18,156 to 158 °C,"CC(=O)Nc1ccc(NCC(=O)C23CC4CC(CC(C4)C2)C3)cc1 [STX2241, N-[4-(2-Adamantan-1-yl-2-oxo-ethylamino)-phenyl]acetamide]"
19,53.5 to 54.5 °C,"CN(Cc1ccco1)C(=O)C12CC3CC(CC(C3)C1)C2 [STX2247, Adamantane-1-carboxylic acid furan-2-ylmethyl-methyl-amide]"
20,87 to 88 °C,"Cc1csc(CN(C)C(=O)C23CC4CC(CC(C4)C2)C3)c1 [STX2254, Adamantane-1-carboxylic acid methyl-(4-methyl-thiophen-2-ylmethyl)-amide]"
21,124 to 125 °C,"Cn1ccnc1S(=O)(=O)CC(=O)C12CC3CC(CC(C3)C1)C2 [STX2294, 1-Adamantan-1-yl-2-(1-methyl-1H-imidazole-2-sulfonyl)-ethanone]"

row,melting point,SMILES
1,117.5 to 119 °C,"O=C(CS(=O)(=O)c1cccs1)C12CC3CC(CC(C3)C1)C2 [STX2295, 1-Adamantan-1-yl-2-(thiophene-2-sulfonyl)-ethanone]"
2,204.5 to 205.5 °C,"Cc1c(C(=O)CS(=O)(=O)Cc2ccc(Cl)cc2)sc2ccc(Cl)cc12 [STX2296, 1-(5-Chloro-3-methyl-benzo[b]thiophen-2-yl)-2-(4-chloro-phenylmethanesulfonyl)-ethanone]"
3,151 to 151.5 °C,"CC(=O)Nc1ccc(S(=O)(=O)CC(=O)C23CC4CC(CC(C4)C2)C3)cc1 [STX2298, N-[4-(2-Adamantan-1-yl-2-oxo-ethanesulfonyl)-phenyl]-acetamide]"
4,95.5 to 98 °C,"O=C(CS(=O)(=O)Cc1cccs1)C12CC3CC(CC(C3)C1)C2 [STX2299, 1-Adamantan-1-yl-2-(thiophen-2-ylmethanesulfonyl)-ethanone]"
5,150 to 152 °C,"O=C(NCc1ccc(Cl)cc1)C1CCN(C(=O)C23CC4CC(CC(C4)C2)C3)CC1 [STX2306, 1-(Adamantane-1-carbonyl)-piperidine-4-carboxylic acid 4-chloro-benzylamide]"
6,185.2 °C,"O=C(O)c1ccc(OCC(=O)C23CC4CC(CC(C4)C2)C3)cc1 [STX2318, 4-(2-Adamantan-1-yl-2-oxo-ethoxy)-benzoic acid]"
7,71.9 °C,"COC(=O)Cc1ccc(OCC(=O)C23CC4CC(CC(C4)C2)C3)cc1 [STX2320, [4-(2-Adamantan-1-yl-2-oxo-ethoxy)-phenyl]-acetic acid methyl ester]"
8,156.2 °C,"O=C(O)c1cccc(OCC(=O)C23CC4CC(CC(C4)C2)C3)c1 [STX2361, 3-(2-Adamantan-1-yl-2-oxo-ethoxy)-benzoic acid]"
9,153.4 °C,"O=C(O)Cc1ccc(OCC(=O)C23CC4CC(CC(C4)C2)C3)cc1 [STX2364, [4-(2-Adamantan-1-yl-2-oxo-ethoxy)-phenyl]-acetic acid]"
10,103.9 °C,"CCN(CC)C(=O)c1ccc(OCC(=O)C23CC4CC(CC(C4)C2)C3)cc1 [STX2375, 4-(2-Adamantan-1-yl-2-oxo-ethoxy)-N,N-diethyl-benzamide]"
11,54 to 55 °C,"CCc1ccc(CN(C)C(=O)CC23CC4CC(CC(C4)C2)C3)s1 [STX2394, 2-Adamantan-1-yl-N-(5-ethyl-thiophen-2-ylmethyl)-N-methyl-acetamide]"
12,86 to 88.5 °C,"CN(Cc1cc(Br)cs1)C(=O)CC12CC3CC(CC(C3)C1)C2 [STX2396, 2-Adamantan-1-yl-N-(4-bromo-thiophen-2-ylmethyl)-N-methyl-acetamide]"
13,129 to 131 °C,"O=C(Nc1cccnc1)C12CC3CC(CC(C3)C1)C2 [STX2399, Adamantane-1-carboxylic acid pyridin-3-ylamide]"
14,200 to 201 °C,"O=C(Nc1nccs1)C12CC3CC(CC(C3)C1)C2 [STX2401, Adamantane-1-carboxylic acid thiazol-2-ylamide]"
15,119 to 121 °C,"O=C(CC12CC3CC(CC(C3)C1)C2)N1CCN(Cc2ccc(Cl)cc2)CC1 [STX2402, 2-Adamantan-1-yl-1-[4-(4-chloro-benzyl)-piperazin-1-yl]-ethanone]"
16,86 to 88 °C,"Cc1cccc(CN2CCN(C(=O)CC34CC5CC(CC(C5)C3)C4)CC2)c1 [STX2403, 2-Adamantan-1-yl-1-[4-(3-methyl-benzyl)-piperazin-1-yl]-ethanone]"
17,112.5 to 115 °C,"O=C(CC12CC3CC(CC(C3)C1)C2)N1CCN(c2ccc(Cl)cc2)CC1 [STX2404, 2-Adamantan-1-yl-1-[4-(4-chloro-phenyl)-piperazin-1-yl]-ethanone]"
18,69 to 71 °C,"CN(Cc1ccsc1)C(=O)CC12CC3CC(CC(C3)C1)C2 [STX2406, 2-Adamantan-1-yl-N-methyl-N-thiophen-3-ylmethyl-acetamide]"
19,75 to 76.5 °C,"CN(Cc1cccn1C)C(=O)CC12CC3CC(CC(C3)C1)C2 [STX2407, 2-Adamantan-1-yl-N-methyl-N-(1-methyl-1H-pyrrol-2-ylmethyl)-acetamide]"
20,67 to 68.5 °C,"CN(Cc1cccnc1)C(=O)CC12CC3CC(CC(C3)C1)C2 [STX2409, 2-Adamantan-1-yl-N-methyl-N-pyridin-3-ylmethyl-acetamide]"
21,145.5 to 147 °C,"O=C(NCc1cccc([N+](=O)[O-])c1)C12CC3CC(CC(C3)C1)C2 [STX2411, Adamantane-1-carboxylic acid 3-nitro-benzylamide]"

row,SMILES,melting point
1,"O=C(NC12CC3CC(CC(C3)C1)C2)OCc1cccs1 [STX1711, Adamantan-1-yl-carbamic acid thiophen-2-ylmethyl ester]",66 to 68 °C
2,"O=C(NC12CC3CC(CC(C3)C1)C2)OCCc1cccs1 [STX1712, Adamantan-1-yl-carbamic acid 2-thiophen-2-yl-ethyl ester]",67 to 69 °C
3,"O=C(NCCc1cccs1)NC12CC3CC(CC(C3)C1)C2 [STX1714, 1-Adamantan-1-yl-3-(2-thiophen-2-yl-ethyl)-urea]",138 to 142 °C
4,"O=C(N1CCc2sccc2C1)C12CC3CC(CC(C3)C1)C2 [STX1721, Adamantan-1-yl-(6,7-dihydro-4H-thieno[3,2-c]pyridin-5-yl)-methanone]",141 to 143 °C
